Data as given in patent publication US12390447B2, “Sirtuin 6 protein deacylase (SIRT6) activators” (Wisconsin Alumni Research Foundation, priority 2019, dated 2025).

Assays:
SIRT6 [1] = target: T1, SIRT6 (Homo sapiens, UniProt Q8N6T7); experiment: Small molecule SIRT6 activator screen (H3K9ac peptide deacetylation, HPLC); type: biochemical; settings: compound 100 μM; SIRT6 1 μM; H3K9ac peptide 20 μM; 0.5 mM NAD+
Description: Mastermix containing SIRT6, buffer, and H3K9ac peptide were distributed to wells using Microflex peristaltic dispenser (Beckman). Plates were spun and preheated to 37° C. before addition of NAD^+ using peristaltic dispenser. After 60 minutes reactions were quenched with 2% TFA final using peristaltic dispenser then sealed and spun again before in-house HPLC separation and quantification of substrate and product peptides. Reaction conditions were 1 μM SIRT6, 0.5 mM NAD^+, […] (4-16), 20 mM potassium phosphate pH 7.5, 10% DMSO, and either 10 or 100 μM compound determined by 10-fold dilution of stock library concentration.
All sirtuin deacylation assays were carried out at 37° C. in 20 mM potassium phosphate pH 7.5 with 0.5 mM NAD^+, 10% DMSO, and 20 μM H3K9ac or H3K9myr peptides, unless otherwise noted in legend, and quenched by the addition of 2% TFA final. Steady-state reactions were constrained to less than 20% substrate turnover to prevent product inhibition. A variety of times were required to monitor SIRT6 deacetylation (2-60 minutes) under this restraint given the ability to strongly activate catalysis. In these cases, specific activities were determined and either reported as is or as fold-activation of specific activity. […] Deacetylation reactions were analyzed using a gradient of 33-100% B (30% acetonitrile with 0.05% TFA) in 8 min at 1.6 mL min^−1. Demyristoylation reactions were analyzed using a gradient of 3 to 100% B (acetonitrile with 0.05% TFA) in 10 min at 1.6 mL min^−1. The product and substrate peaks were quantified and ratio of these allowed for quantification of product formation.

SIRT6 [2] = target: T1, SIRT6; experiment: SIRT6 deacetylation of H3K9ac peptide, fold-activation versus activator concentration; type: biochemical; settings: for EC50: H3K9ac peptide 20 μM
Description: (1A) Compound libraries BML-2803, BML-2800, and an additional set of 178 molecules were screened at 100 μM for their ability to stimulate SIRT6 (1 μM) deacetylation of H3K9ac peptide (20 μM) in the presence of 0.5 mM NAD^+. SIRT6 activity was measured by HPLC quantification of H3K9ac and deacetylated product (inset) and fold activations relative to DMSO control were determined and compiled. (1B) Fold-activation of SIRT6 (1 μM) determined in the presence of either 0-400 μM CL4, 0-150 μM TTNPB, 0-100 μM Lysophosphatidic acid (LPA), or 0-200 μM linoleoylglycine (LGly). Maximum fold-activation and EC50 determined by sigmoidal curve fit. (1C) Steady-state kinetic analysis of SIRT6 (1 μM) deacetylation was conducted with 0-250 μM H3K9ac peptide in the presence of 100 μM CL4, 50 μM TTNPB, 50 μM LPA, or 50 μM LGly. Constants Km, H3K9ac and kcat were determined by fitting data to Michaelis-Menten equation. (1D) Fold-activations of SIRT1 (0.1 μM), SIRT2 (0.2 μM), SIRT3 (1 μM), SIRT5 (2 μM), and SIRT6 (1 μM) determined in the presence of CL4 (100 μM), TTNPB (50 μM), and LPA (50 μM) relative to DMSO control against 20 μM H3K9ac peptide and 0.5 mM NAD^+. Mean values reported with error bars representing standard deviation of at least three replicates.
All sirtuin deacylation assays were carried out at 37° C. in 20 mM potassium phosphate pH 7.5 with 0.5 mM NAD^+, 10% DMSO, and 20 μM H3K9ac or H3K9myr peptides, unless otherwise noted in legend, and quenched by the addition of 2% TFA final. Steady-state reactions were constrained to less than 20% substrate turnover to prevent product inhibition. A variety of times were required to monitor SIRT6 deacetylation (2-60 minutes) under this restraint given the ability to strongly activate catalysis. In these cases, specific activities were determined and either reported as is or as fold-activation of specific activity. Deacylation reactions were analyzed by reversed phase high-performance liquid chromatography on a Kinetex C18 column (100 Å, 100×4.6 mm, 2.6 μm, Phenomenex) by monitoring the formation of the deacylated product at 214 nm. Deacetylation reactions were analyzed using a gradient of 33-100% B (30% acetonitrile with 0.05% TFA) in 8 min at 1.6 mL min^−1. Demyristoylation reactions were analyzed using a gradient of 3 to 100% B (acetonitrile with 0.05% TFA) in 10 min at 1.6 mL min^−1. The product and substrate peaks were quantified and ratio of these allowed for quantification of product formation. […]

[3] = SIRT6 1 μM, 0.5 mM NAD+, sigmoidal curve fit

T1 sequence (Q8N6T7 whole entry): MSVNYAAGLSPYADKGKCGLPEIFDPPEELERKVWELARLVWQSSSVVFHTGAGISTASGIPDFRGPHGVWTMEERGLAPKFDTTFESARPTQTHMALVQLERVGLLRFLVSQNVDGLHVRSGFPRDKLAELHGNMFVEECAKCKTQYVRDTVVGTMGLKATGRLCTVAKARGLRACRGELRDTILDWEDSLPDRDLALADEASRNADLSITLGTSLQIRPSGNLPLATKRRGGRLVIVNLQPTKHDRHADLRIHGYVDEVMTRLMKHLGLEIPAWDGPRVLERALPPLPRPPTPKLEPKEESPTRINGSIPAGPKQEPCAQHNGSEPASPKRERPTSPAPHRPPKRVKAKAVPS

Row | F.A. (fold-activation of SIRT6 relative to DMSO control) (SIRT6 [1]) [fold] | EC50 (SIRT6 [2]; [3]) [µM] | FAmax (maximum fold-activation) (SIRT6 [2]; SIRT6 1 μM, sigmoidal curve fit) [fold] | SIRT6 deacetylase activity at high activator concentration (SIRT6 [2]; 400 μM compound) | increased potency over CL-4 (SIRT6 [2]; by concentration required for 4-fold activation of SIRT6 deacetylase activity) [fold] | concentration required to stimulate 4-fold activation of SIRT6 (SIRT6 [2]; SIRT6 1 μM, H3K9ac 20 μM, 0.5 mM NAD+) [µM] | SMILES
1 | 29 | 88 ± 4 | 17 ± 0.8 | – | – | – | CCCCC/C=C\C/C=C\CCCCCCCC(=O)NCC(=O)O [N-Linoleoylglycine, linoleoyl-glycine, reference compound]
2 | – | – | – | inhibited | 7 | – | O=C(O)c1ccc2c(c1)C(=O)N(c1ccc(N(C(=O)c3c(Cl)cc(Cl)cc3Cl)C(=O)c3c(Cl)cc(Cl)cc3Cl)c(Cl)c1)C2=O [CL-5D, 2-(3-chloro-4-(2,4,6-trichloro-N-(2,4,6-trichlorobenzoyl)benzamido)phenyl)-1,3-dioxoisoindoline-5-carboxylic acid]
3 | 18 | 97 ± 2 | – | – | – | 35 | O=C(O)c1ccc2c(c1)C(=O)N(c1ccc(NC(=O)c3ccc(Cl)cc3Cl)c(Cl)c1)C2=O [CL-4, 2-(3-chloro-4-(2,4-dichlorobenzamido)phenyl)-1,3-dioxoisoindoline-5-carboxylic acid]
